Experiments:
[1] = test system: wild oat; assay: Test C pre-/postemergence test; type: in vivo, Avena fatua
How it was run: (§1)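 Test chemicals were formulated with surfactant in a non-phytotoxic solvent and sprayed both on freshly planted seeds (preemergence) and on 1- to 4-leaf plants of 2–18 cm (postemergence). Flooded-paddy pots received compound directly into 3 cm of standing water, maintained for the test.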

[2] = test system: bermudagrass; assay: Test C pre-/postemergence test; type: in vivo, Cynodon dactylon
How it was run: as §1

[3] = test system: crabgrass; assay: Test C pre-/postemergence test; type: in vivo, Digitaria sanguinalis
How it was run: as §1

[4] = test system: corn; assay: Test A pre-/postemergence greenhouse test; type: in vivo, Zea mays; conditions: for Plant response rating, Corn: 0 to 100 scale where 0 is no effect and 100 is complete control; for Corn plant response rating: 0 to 100 scale
How it was run: (§2)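 Each test compound, dissolved in a non-phytotoxic solvent mixture with surfactant, was sprayed directly onto seeded soil (loam/sand blend) and, at the same moment, onto seedlings carrying one to two leaves. Around ten greenhouse days later, plants were rated visually for injury relative to untreated controls.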

[5] = test system: eastern black nightshade; assay: Test C pre-/postemergence test; type: in vivo, Solanum ptycanthum
How it was run: as §1

[6] = test system: blackgrass; assay: Test C pre-/postemergence test; type: in vivo, Alopecurus myosuroides
How it was run: as §1

[7] = test system: velvetleaf; assay: Test C pre-/postemergence test; type: in vivo, Abutilon theophrasti
How it was run: as §1

[8] = test system: wheat; assay: Test C pre-/postemergence test; type: in vivo, Triticum aestivum
How it was run: as §1

[9] = test system: barnyardgrass; assay: Test C flooded paddy test; type: in vivo, Echinochloa crus-galli; conditions: Flood
How it was run: (§3)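 Compound was added to standing water 3 cm above soil, flood maintained, and plants held in a greenhouse before visual scoring against controls at 13 to 15 days.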

[10] = test system: pigweed; assay: Test C pre-/postemergence test; type: in vivo, Amaranthus retroflexus
How it was run: as §1

[11] = test system: kochia; assay: Test C pre-/postemergence test; type: in vivo, Kochia scoparia
How it was run: as §1

[12] = test system: catchweed bedstraw; assay: Test C pre-/postemergence test; type: in vivo, Galium aparine
How it was run: as §1

[13] = test system: redroot pigweed; assay: Test A pre-/postemergence greenhouse test; type: in vivo, Amaranthus retroflexus; conditions: for Pigweed plant response rating: 0 to 100 scale
How it was run: as §2

[14] = test system: duck salad; assay: Test C flooded paddy test; type: in vivo, Heteranthera limosa; conditions: Flood
How it was run: as §3

[15] = test system: Surinam grass; assay: Test C pre-/postemergence test; type: in vivo, Brachiaria decumbens
How it was run: as §1

[16] = test system: rice; assay: Test C flooded paddy test; type: in vivo, Oryza sativa; conditions: Flood
How it was run: as §3

[17] = test system: common (oilseed) sunflower; assay: Test C pre-/postemergence test; type: in vivo, Helianthus annuus
How it was run: as §1

[18] = 62 g ai/ha, Preemergence, scale 0 to 100
[19] = 125 g ai/ha, preemergence, scale 0 (no effect) to 100 (complete control)
[20] = Preemergence, 31 g ai/ha, scale 0 to 100 (0 no effect, 100 complete control)
[21] = preemergence, 250 g ai/ha, scale 0 (no effect) to 100 (complete control)
[22] = Postemergence, 500 g ai/ha, 0 is no effect, 100 is complete control
[23] = Preemergence, 125 g ai/ha, 0 no effect, 100 complete control
[24] = Preemergence, 500 g ai/ha, 0 no effect, 100 complete control
[25] = 31 g ai/ha, scale 0 to 100 (0 no effect, 100 complete control)
[26] = 62 g ai/ha, scale 0 to 100 (0 no effect, 100 complete control)
[27] = 125 g ai/ha, scale 0 to 100, 0 no effect, 100 complete control, 13 to 15 days
[28] = 250 g ai/ha, scale 0 to 100, 0 no effect, 100 complete control, 13 to 15 days
[29] = 31 g ai/ha, Preemergence, scale 0 to 100
[30] = 62 g ai/ha, preemergence, scale 0 (no effect) to 100 (complete control)
[31] = preemergence, 125 g ai/ha, scale 0 (no effect) to 100 (complete control)
[32] = Postemergence, 125 g ai/ha, 0 is no effect, 100 is complete control
[33] = 62 g ai/ha, scale 0 to 100, 0 no effect, 100 complete control, 13 to 15 days
[34] = 250 g ai/ha, scale 0 to 100 (0 no effect, 100 complete control)

CC(C)c1cc[n+]([O-])c([S+]([O-])Cc2c(C(F)(F)F)nn(C)c2OC(F)F)c1 (stereo not drawn) [Compound 109]
Oat, Wild plant response rating [1, 18]: 70 | Oat, Wild plant response rating [1, 19]: 90 | Plant response rating, Oat, Wild [1, 20]: 50 | Oat, Wild plant response rating [1, 21]: 98 | Bermudagrass plant response rating ([2]; 62 g ai/ha, Preemergence, scale 0 to 100 (0 no effect, 100 complete control)): 100 | Bermudagrass plant response rating [2, 19]: 100 | Plant response rating, Bermudagrass [2, 20]: 95 | Bermudagrass plant response rating [2, 21]: 100 | Crabgrass, Large plant response rating [3, 18]: 100 | Crabgrass, Large plant response rating [3, 19]: 100 | Plant response rating, Crabgrass, Large [3, 20]: 80 | Crabgrass, Large plant response rating [3, 21]: 100 | Plant response rating, Corn ([4]; Postemergence, 125 g ai/ha): 60 | Corn plant response rating [4, 22]: 80 | Corn plant response rating [4, 23]: 50 | Corn plant response rating [4, 24]: 90 | Nightshade plant response rating [5, 18]: 80 | Nightshade plant response rating [5, 19]: 95 | Plant response rating, Nightshade [5, 20]: 20 | Nightshade plant response rating [5, 21]: 100 | Blackgrass plant response rating [6, 18]: 70 | Blackgrass plant response rating [6, 19]: 80 | Plant response rating, Blackgrass [6, 20]: 40 | Blackgrass plant response rating [6, 21]: 80 | Velvetleaf plant response rating [7, 18]: 80 | Velvetleaf plant response rating [7, 19]: 98 | Plant response rating, Velvetleaf [7, 20]: 10 | Velvetleaf plant response rating [7, 21]: 100 | Wheat plant response rating [8, 18]: 50 | Wheat plant response rating [8, 19]: 65 | Plant response rating, Wheat [8, 20]: 10 | Wheat plant response rating [8, 21]: 100 | Plant response rating, Barnyardgrass [9, 25]: 0 | Plant response rating, Barnyardgrass [9, 26]: 20 | Plant response rating, Barnyardgrass [9, 27]: 20 | Plant response rating, Barnyardgrass [9, 28]: 20 | Pigweed plant response rating [10, 18]: 100 | Pigweed plant response rating [10, 19]: 100 | Plant response rating, Pigweed [10, 20]: 100 | Pigweed plant response rating [10, 21]: 100 | Kochia plant response rating [11, 18]: 90 | Kochia plant response rating [11, 19]: 100 | Plant response rating, Kochia [11, 20]: 80 | Kochia plant response rating [11, 21]: 100 | Galium plant response rating [12, 18]: 90 | Galium plant response rating [12, 19]: 100 | Plant response rating, Galium [12, 20]: 60 | Galium plant response rating [12, 21]: 100 | Plant response rating, Pigweed ([13]; Postemergence, 125 g ai/ha, 0 to 100 scale where 0 is no effect and 100 is complete control): 60 | Pigweed plant response rating [13, 22]: 90 | Pigweed plant response rating [13, 23]: 100 | Pigweed plant response rating [13, 24]: 100 | Plant response rating, Ducksalad [14, 25]: 0 | Plant response rating, Ducksalad [14, 26]: 40 | Plant response rating, Ducksalad [14, 27]: 45 | Plant response rating, Ducksalad [14, 28]: 65 | Surinam Grass plant response rating [15, 18]: 95 | Surinam Grass plant response rating [15, 19]: 100 | Plant response rating, Surinam Grass [15, 20]: 50 | Surinam Grass plant response rating [15, 21]: 100 | Plant response rating, Rice [16, 25]: 0 | Plant response rating, Rice [16, 26]: 0 | Plant response rating, Rice [16, 27]: 0 | Plant response rating, Rice [16, 28]: 20 | Sunflower plant response rating [17, 18]: 50 | Sunflower plant response rating [17, 19]: 55 | Plant response rating, Sunflower [17, 20]: 50 | Sunflower plant response rating [17, 21]: 75

Cn1nc(C(F)(F)F)c(C(Cl)S(=O)(=O)c2cccc[n+]2[O-])c1Cl (stereo not drawn) [Compound 12]
Oat, Wild plant response rating [1, 29]: 0 | Oat, Wild plant response rating [1, 30]: 0 | Plant response rating (0 to 100), Oat, Wild ([1]; Preemergence, 250 g ai/ha): 0 | Oat, Wild plant response rating [1, 31]: 0 | Bermudagrass plant response rating [2, 29]: 100 | Bermudagrass plant response rating [2, 30]: 100 | Plant response rating (0 to 100), Bermudagrass ([2]; Preemergence, 250 g ai/ha): 100 | Bermudagrass plant response rating [2, 31]: 100 | Crabgrass, Large plant response rating [3, 29]: 100 | Crabgrass, Large plant response rating [3, 30]: 100 | Plant response rating (0 to 100), Crabgrass, Large ([3]; Preemergence, 250 g ai/ha): 100 | Crabgrass, Large plant response rating [3, 31]: 100 | Corn plant response rating [4, 32]: 0 | Corn plant response rating [4, 22]: 0 | Corn plant response rating [4, 23]: 0 | Plant response rating, Corn ([4]; Preemergence, 500 g ai/ha): 30 | Nightshade plant response rating [5, 29]: 100 | Nightshade plant response rating [5, 30]: 100 | Plant response rating (0 to 100), Nightshade ([5]; Preemergence, 250 g ai/ha): 100 | Nightshade plant response rating [5, 31]: 100 | Blackgrass plant response rating [6, 29]: 0 | Blackgrass plant response rating [6, 30]: 98 | Plant response rating (0 to 100), Blackgrass ([6]; Preemergence, 250 g ai/ha): 100 | Blackgrass plant response rating [6, 31]: 98 | Velvetleaf plant response rating [7, 30]: 0 | Plant response rating (0 to 100), Velvetleaf ([7]; Preemergence, 250 g ai/ha): 0 | Velvetleaf plant response rating [7, 31]: 0 | Wheat plant response rating [8, 30]: 0 | Plant response rating (0 to 100), Wheat ([8]; Preemergence, 250 g ai/ha): 20 | Wheat plant response rating [8, 31]: 0 | Plant response rating, Barnyardgrass [9, 25]: 0 | Plant response rating, Barnyardgrass [9, 33]: 50 | Plant response rating, Barnyardgrass [9, 27]: 80 | Plant response rating, Barnyardgrass [9, 34]: 85 | Pigweed plant response rating [10, 29]: 100 | Pigweed plant response rating [10, 30]: 100 | Plant response rating (0 to 100), Pigweed ([10]; Preemergence, 250 g ai/ha): 100 | Pigweed plant response rating [10, 31]: 100 | Kochia plant response rating [11, 29]: 0 | Kochia plant response rating [11, 30]: 0 | Plant response rating (0 to 100), Kochia ([11]; Preemergence, 250 g ai/ha): 80 | Galium plant response rating [12, 29]: 80 | Galium plant response rating [12, 30]: 100 | Plant response rating (0 to 100), Galium ([12]; Preemergence, 250 g ai/ha): 100 | Galium plant response rating [12, 31]: 100 | Pigweed plant response rating [13, 32]: 0 | Pigweed plant response rating [13, 22]: 0 | Plant response rating, Ducksalad [14, 25]: 40 | Plant response rating, Ducksalad [14, 33]: 95 | Plant response rating, Ducksalad [14, 27]: 100 | Plant response rating, Ducksalad [14, 34]: 100 | Surinam Grass plant response rating [15, 30]: 0 | Plant response rating (0 to 100), Surinam Grass ([15]; Preemergence, 250 g ai/ha): 40 | Surinam Grass plant response rating [15, 31]: 30 | Plant response rating, Rice [16, 25]: 60 | Plant response rating, Rice [16, 33]: 60 | Plant response rating, Rice [16, 27]: 70 | Plant response rating, Rice [16, 34]: 80 | Sunflower plant response rating [17, 30]: 0 | Plant response rating (0 to 100), Sunflower ([17]; Preemergence, 250 g ai/ha): 20 | Sunflower plant response rating [17, 31]: 0
